54 substances from patent publication US20250332249A1, “CYTOM[…] CELL EPITOPES AND USES THEREOF” (LA JOLLA INSTITUTE FOR IMMUNOLOGY, priority 2021, published 2025) can be followed below.

Where no end group is shown, it is not given here.

The assay deals with PBMCs from HCMV seropositive subjects. Briefly: ex vivo IFN-γ Fluorospot assay. The class given is cell-based, human. The settings on record: 19 HCMV seropositive subjects, individual peptide 10 ug/ml, 20 hr; for No. of subjects responding: IFN-γ; for Magnitude of response: IFN-γ spots (FIG. 1: SFC/10^6 PBMC; no unit in table). Here is the method: To define the targets of HCMV-specific T cell epitopes recognized in healthy adults, the inventors screened PBMCs of 19 subjects, 10 males and 9 females, recruited from San Diego blood bank (SDBB). The HCMV seropositivity of all the subjects was confirmed by IgG ELISA (FIG. 6A). A total of 2593 HCMV peptides covering a total of 563 ORFs (1) were tested. However, as many of these predicted ORFs overlapped 100% with others, as they were internal to longer ORFs, these 563 contained 359 completely unique ORFs composed of ˜150“canonical” ORFs, and an additional ˜200 identified by ribosomal RNA profiling (1). These peptides corresponded to predicted dominant epitopes, based on a bioinformatic method that predicts promiscuous binding to HLA class II molecules (40). Each of the ORFs above was covered by multiple predicted epitopes (with a minimum of at least 2), with the exception of very small ORFs (less than 15-20 amino acid residues), in which case at least one peptide was synthetized. The 2593 peptides were arranged in 89 pools of 28-30 15-mer peptides. PBMC reactivity of each of the 89 pools was assayed directly ex vivo using an IFN-γ Fluorospot assay.
For the initial CMV ORF screen, the responses of 19 CMV-seropositive subjects were evaluated. PBMCs were stimulated with 89 pools covering 563 ORFs of HCMV. Each pool comprised of 28-30 15-mer peptides overlapping by 10 residues. PBMCs that were found reactive to a pool were further tested against individual peptides contained in the pool using IFN-γ Fluorospot assay.
PBMC were thawed, washed and counted for viability using the trypan blue exclusion method. 200,000 cells were plated in triplicates and stimulated with pools (2 ug/ml) or peptides (10 ug/ml), PHA (10 ug/ml) or medium containing equivalent amount of DMSO in 96-well plates (Immubilion-P, Millipore) previously coated with anti IFN-γ antibody (1-DIK, Mabtech, Stockholm, Sweden). After 20 hr incubation at 37° C., cells were discarded and wells were washed six times with PBS/0.05% Tween 20 using an automated plate washer and further incubated with IFN-γ antibody (7-B6-1-FS-BAM) for 2 hrs at room temperature. After incubation, wells were washed and incubated with fluorophore conjugated anti-BAM-490 antibody for 1 hr at room temperature. Finally, the plates were washed and incubated with fluorescence enhancer for 15 min, blotted dry and fluorescent spots were counted by computer assisted image analysis (IRIS Fluorospot reader, Mabtech, Sweden).
Each pool or peptide was considered positive compared to the background that had equivalent amount of DMSO based on the following criteria: (i) 20 or more spot forming cells (SFC) per 10^6 PBMC after background subtraction, (ii) the stimulation index greater than 2, and (iii) p<0.05 by student's t test or Poisson distribution test

Consider 56 (RHRFLWQRRRRARLL) [compound 56], for which the “No. of subjects responding” value is recorded as 1 and the Magnitude of response is listed as 1000.

Consider 58 (FLKKMLLCALKGRAS) [compound 58], for which the “No. of subjects responding” value was 1 and the Magnitude of response is reported as 930.

As to 59 (MPVQRLTVNVARCVF) [compound 59], the “No. of subjects responding” value turned out to be 1 and the Magnitude of response is listed as 20.

Take 60 (KFIFELYRLPRLSIA) [compound 60]: the “No. of subjects responding” value amounted to 1 and the Magnitude of response was 173.

Turning to 61 (ASKIKMLETRVTLAL) [compound 61], the “No. of subjects responding” value turned out to be 1 and the Magnitude of response is recorded as 140.

Regarding 63 (AFKLDLLRMIAVSRT) [compound 63], the “No. of subjects responding” value is reported as 2 and the Magnitude of response came out at 477.

In the case of 64 (MLFFQRYAPAFVTGY) [compound 64], the “No. of subjects responding” value stood at 1 and the Magnitude of response was found to be 57.

As to 65 (DLKYILTRLEYLYKV) [compound 65], the “No. of subjects responding” value worked out at 1 and the Magnitude of response was 30.

On to 66 (DPSYVREHGVPIHAD) [compound 66], for which the “No. of subjects responding” value is recorded as 1 and the Magnitude of response turned out to be 123.

As to 67 (TDLIRFERNIVCTSM) [compound 67], the “No. of subjects responding” value worked out at 3 and the Magnitude of response is on record as 273.

Take 68 (EGIMVVYKRNIVAHT) [compound 68]: the “No. of subjects responding” value stood at 1 and the Magnitude of response was 637.

With 69 (HTFKVRVYQKVLTFR) [compound 69], the “No. of subjects responding” value amounted to 1 and the Magnitude of response is recorded as 423.

For the substance 70 (YQKVLTFRRSYAYIH) [compound 70], the “No. of subjects responding” value is recorded as 1 and the Magnitude of response worked out at 40.

71 (RRSYAYIHTTYLLGS) [compound 71]: the “No. of subjects responding” value came to 5 and the Magnitude of response came to 2730.

For the substance 72 (QLMPDDYSNTHSTRY) [compound 72], the “No. of subjects responding” value amounted to 5 and the Magnitude of response worked out at 45517.

Regarding 73 (NLNCMVTITTARSKY) [compound 73], the “No. of subjects responding” value is listed as 2 and the Magnitude of response was 4810.

For 74 (NADKFFIFPNYTIVS) [compound 74], the “No. of subjects responding” value turned out to be 4 and the Magnitude of response is listed as 5120.

For the substance 75 (GLVVFWQGIKQKSLV) [compound 75], the “No. of subjects responding” value came to 1 and the Magnitude of response was found to be 53.

With 76 (QLQFTYDTLRGYINR) [compound 76], the “No. of subjects responding” value is listed as 3 and the Magnitude of response is on record as 2236.

For 77 (LRGYINRALAQIAEA) [compound 77], the “No. of subjects responding” value came to 3 and the Magnitude of response came out at 30337.

With 78 (KELSKINPSAILSAI) [compound 78], the “No. of subjects responding” value amounted to 3 and the Magnitude of response is on record as 18557.

Take 79 (AILSAIYNKPIAARF) [compound 79]: the “No. of subjects responding” value is 5 and the Magnitude of response worked out at 11264.

Turning to 80 (ASCVTINQTSVKVLR) [compound 80], the “No. of subjects responding” value is given as 5 and the Magnitude of response amounted to 8941.

Turning to 81 (YLFKRMIDLSSISTV) [compound 81], the “No. of subjects responding” value was 1 and the Magnitude of response stood at 67.

Turning to 84 (QILWTDGLARRTRDR) [compound 84], the “No. of subjects responding” value is 1 and the Magnitude of response stood at 37.

As for 85 (RVGITIQQLNVYHQL) [compound 85], the “No. of subjects responding” value is listed as 1 and the Magnitude of response was 963.

As to 86 (TMRSVFEMQRIRHGA) [compound 86], the “No. of subjects responding” value amounted to 1 and the Magnitude of response is listed as 67.

On to 87 (NIFLVGFYLLVPYLG) [compound 87], for which the “No. of subjects responding” value was determined as 1 and the Magnitude of response was found to be 1633.

On to 88 (SLLILVVLLLIYRCC) [compound 88], for which the “No. of subjects responding” value was determined as 1 and the Magnitude of response was 23.

Turning to 89 (LSYMKYHHLHGLPVN) [compound 89], the “No. of subjects responding” value came out at 3 and the Magnitude of response is 879.

Take 90 (VELCLGAGAGHVVVV) [compound 90]: the “No. of subjects responding” value stood at 1 and the Magnitude of response is recorded as 383.

As for 91 (RSSWRASCVEVPKKP) [compound 91], the “No. of subjects responding” value was found to be 1 and the Magnitude of response came out at 370.

With 92 (MQKYFSLDNFLHDYV) [compound 92], the “No. of subjects responding” value is listed as 2 and the Magnitude of response came out at 20343.

In the case of 93 (QTIYFLGLTALLLRY) [compound 93], the “No. of subjects responding” value is on record as 1 and the Magnitude of response was 583.

For the substance 94 (SFYLVNAMSRNLFRV) [compound 94], the “No. of subjects responding” value came out at 1 and the Magnitude of response worked out at 43.

Regarding 95 (TMRKLKRKQALVKEQ) [compound 95], the “No. of subjects responding” value came to 1 and the Magnitude of response came to 1563.

As to 96 (TAVSEFMKNTHVLIR) [compound 96], the “No. of subjects responding” value worked out at 1 and the Magnitude of response came out at 747.

For 98 (IKMWFLLGAPMIAVL) [compound 98], the “No. of subjects responding” value was determined as 3 and the Magnitude of response came to 2867.

Consider 99 (LFIIAFFSREPTKDL) [compound 99], for which the “No. of subjects responding” value was found to be 1 and the Magnitude of response is reported as 190.

Regarding 100 (PKSFTLTRIHPEYIV) [compound 100], the “No. of subjects responding” value turned out to be 2 and the Magnitude of response is 340.

Turning to 101 (PEYIVQIQNAFETNQ) [compound 101], the “No. of subjects responding” value is 4 and the Magnitude of response came to 527.

Regarding 102 (GALTLVIPSWHVFAS) [compound 102], the “No. of subjects responding” value was found to be 2 and the Magnitude of response is given as 190.

103 (CRSATSLVGNTNADV) [compound 103]: the “No. of subjects responding” value was 1 and the Magnitude of response is reported as 30.

Regarding 104 (SSCAHTTCRSATSLV) [compound 104], the “No. of subjects responding” value amounted to 2 and the Magnitude of response turned out to be 104.

Regarding 105 (SWLGQMLRPVGLCTL) [compound 105], the “No. of subjects responding” value is on record as 1 and the Magnitude of response came to 43.

In the case of 114 (GILARNLVPMVATVQ) [compound 114], the “No. of subjects responding” value was 11 and the Magnitude of response is reported as 34633.

Regarding 116 (RVTGLVFSVVFSVSL) [compound 116], the “No. of subjects responding” value came out at 4 and the Magnitude of response worked out at 6380.

For 117 (LTWCVIADRQPRFSV) [compound 117], the “No. of subjects responding” value is 3 and the Magnitude of response was determined as 240.

Turning to “118 (RPKRRVVAPFRVAAA; ends and bridges not checked) [compound 118]”, the “No. of subjects responding” value was determined as 2 and the Magnitude of response is given as 283.

For the substance “119 (APFRVAAAGETPLGR; ends and bridges not checked) [compound 119]”, the “No. of subjects responding” value is given as 6 and the Magnitude of response worked out at 1089.

Turning to “131 (PFTVLRLSYAYRIFA; ends and bridges not checked) [compound 131]”, the “No. of subjects responding” value is given as 1 and the Magnitude of response is recorded as 33.

In the case of “132 (AREFLLSHDAALFRA; ends and bridges not checked) [compound 132]”, the “No. of subjects responding” value was determined as 1 and the Magnitude of response was found to be 23.

In the case of “133 (MLIQQYVLSQYYIKK; ends and bridges not checked) [compound 133]”, the “No. of subjects responding” value was 1 and the Magnitude of response is reported as 20.

Take “134 (RLGTAATQIQKQTLY; ends and bridges not checked) [compound 134]”: the “No. of subjects responding” value is on record as 1 and the Magnitude of response came out at 30.
